Source: the NIST ThermoML archive (doi:10.1016/j.fluid.2010.07.009)
± gives the expanded uncertainty stated by the source.

Tests used:
[1] = xn = mol fraction of the nth substance listed; conditions: Fluid (supercritical or subcritical phases), coriolis meter
[2] = Fluid (supercritical or subcritical phases), coriolis meter

O=C=O [carbon dioxide] + COC
mass density ([1]; 291.3 K, 6100 kPa, x2 = 0): 817 ± 4 kg/m3
mass density ([1]; 291.5 K, 7100 kPa, x2 = 0): 834 ± 11 kg/m3
mass density ([1]; 291.7 K, 8100 kPa, x2 = 0): 849 ± 14 kg/m3
mass density ([1]; 291.9 K, 9200 kPa, x2 = 0): 861 ± 3 kg/m3
mass density ([1]; 292 K, 10200 kPa, x2 = 0): 872 ± 5 kg/m3
mass density ([1]; 292.1 K, 15200 kPa, x2 = 0): 916 ± 8 kg/m3
mass density ([1]; 292.1 K, 20200 kPa, x2 = 0): 948 ± 12 kg/m3
mass density ([1]; 292.1 K, 25300 kPa, x2 = 0): 975 ± 2 kg/m3
mass density ([1]; 292.1 K, 30100 kPa, x2 = 0): 997 ± 2 kg/m3

COC [dimethyl ether]
mass density ([2]; 288.5 K, 4100 kPa): 684 ± 7 kg/m3
mass density ([2]; 288.6 K, 5100 kPa): 686 ± 16 kg/m3
mass density ([2]; 288.8 K, 6100 kPa): 688 ± 7 kg/m3
mass density ([2]; 289 K, 7200 kPa): 690 ± 7 kg/m3
mass density ([2]; 289.1 K, 8200 kPa): 691 ± 7 kg/m3
mass density ([2]; 289.1 K, 9200 kPa): 693 ± 7 kg/m3
mass density ([2]; 289.3 K, 10000 kPa): 694 ± 7 kg/m3
mass density ([2]; 289.3 K, 15000 kPa): 703 ± 7 kg/m3
mass density ([2]; 289.3 K, 20000 kPa): 711 ± 7 kg/m3
mass density ([2]; 289.4 K, 25000 kPa): 718 ± 7 kg/m3
mass density ([2]; 289.5 K, 30000 kPa): 725 ± 8 kg/m3

O=C=O [carbon dioxide]
mass density ([2]; 291.3 K, 6100 kPa): 817 ± 9 kg/m3
mass density ([2]; 291.5 K, 7100 kPa): 834 ± 14 kg/m3
mass density ([2]; 291.7 K, 8100 kPa): 849 ± 17 kg/m3
mass density ([2]; 291.9 K, 9200 kPa): 861 ± 9 kg/m3
mass density ([2]; 292 K, 10200 kPa): 872 ± 10 kg/m3
mass density ([2]; 292.1 K, 15200 kPa): 916 ± 12 kg/m3
mass density ([2]; 292.1 K, 20200 kPa): 948 ± 15 kg/m3
mass density ([2]; 292.1 K, 25300 kPa): 975 ± 10 kg/m3
mass density ([2]; 292.1 K, 30100 kPa): 997 ± 10 kg/m3

COC [dimethyl ether] + O=C=O
mass density ([1]; 288.5 K, 4100 kPa, x1 = 1): 684 ± 1 kg/m3
mass density ([1]; 288.6 K, 5100 kPa, x1 = 1): 686 ± 14 kg/m3
mass density ([1]; 288.8 K, 6100 kPa, x1 = 1): 688 ± 1 kg/m3
mass density ([1]; 289 K, 7200 kPa, x1 = 1): 690 ± 2 kg/m3
mass density ([1]; 289.1 K, 8200 kPa, x1 = 1): 691 ± 1 kg/m3
mass density ([1]; 289.1 K, 9200 kPa, x1 = 1): 693 ± 1 kg/m3
mass density ([1]; 289.3 K, 10000 kPa, x1 = 1): 694 ± 1 kg/m3
mass density ([1]; 289.3 K, 15000 kPa, x1 = 1): 703 ± 1 kg/m3
mass density ([1]; 289.3 K, 20000 kPa, x1 = 1): 711 ± 1 kg/m3
mass density ([1]; 289.4 K, 25000 kPa, x1 = 1): 718 ± 2 kg/m3
mass density ([1]; 289.5 K, 30000 kPa, x1 = 1): 725 ± 2 kg/m3
mass density ([1]; 290.2 K, 4100 kPa, x1 = 0.251): 806 ± 1 kg/m3
mass density ([1]; 290.7 K, 30100 kPa, x1 = 0.251): 908 ± 2 kg/m3
mass density ([1]; 291.8 K, 25200 kPa, x1 = 0.251): 892 ± 1 kg/m3
mass density ([1]; 291.9 K, 10100 kPa, x1 = 0.251): 834 ± 2 kg/m3
mass density ([1]; 291.9 K, 15200 kPa, x1 = 0.251): 857 ± 1 kg/m3
mass density ([1]; 291.9 K, 20200 kPa, x1 = 0.251): 875 ± 1 kg/m3
mass density ([1]; 292 K, 8100 kPa, x1 = 0.251): 824 ± 2 kg/m3
mass density ([1]; 292 K, 9200 kPa, x1 = 0.251): 829 ± 2 kg/m3
mass density ([1]; 292.1 K, 6100 kPa, x1 = 0.251): 811 ± 2 kg/m3
mass density ([1]; 292.1 K, 7100 kPa, x1 = 0.251): 817 ± 2 kg/m3
mass density ([1]; 292.2 K, 5100 kPa, x1 = 0.251): 805 ± 6 kg/m3
mass density ([1]; 292.5 K, 4000 kPa, x1 = 0.458): 769 ± 1 kg/m3
mass density ([1]; 292.5 K, 5200 kPa, x1 = 0.458): 773 ± 1 kg/m3
mass density ([1]; 292.6 K, 6100 kPa, x1 = 0.458): 776 ± 1 kg/m3
mass density ([1]; 292.7 K, 7100 kPa, x1 = 0.458): 780 ± 1 kg/m3
mass density ([1]; 292.8 K, 8200 kPa, x1 = 0.458): 783 ± 1 kg/m3
mass density ([1]; 293 K, 9200 kPa, x1 = 0.458): 786 ± 15 kg/m3
mass density ([1]; 293.1 K, 10200 kPa, x1 = 0.458): 789 ± 1 kg/m3
mass density ([1]; 293.2 K, 15200 kPa, x1 = 0.458): 804 ± 1 kg/m3
mass density ([1]; 293.4 K, 20200 kPa, x1 = 0.458): 817 ± 1 kg/m3
mass density ([1]; 293.5 K, 25300 kPa, x1 = 0.458): 830 ± 1 kg/m3
mass density ([1]; 293.7 K, 29300 kPa, x1 = 0.458): 839 ± 1 kg/m3
mass density ([1]; 293.7 K, 30000 kPa, x1 = 0.458): 840 ± 1 kg/m3
